14 compounds from PubChem BioAssay AID212 (DTP/NCI, 2004) can be followed below.

“And” between values parts separate entries of the source, which are not always exact repeats. Identical values can stand only once. Inconclusive results are not listed.

The experiment relates to BDF1 mice, colon carcinoma 38 sc, T/C %. Briefly: NCI In Vivo Anticancer Drug Screen. Data for tumor model Colon Carcinoma 38 (subcutaneous) in B6D2F1 (BDF1) mice. The following applies: endpoint: median tumor weight (est.), higher = larger tumour. In outline: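 Ratio of survival or tumor size, compound-treated animals relative to vehicle controls, in tumor-bearing mice.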

[1] abbreviates: dose: 1.0 mg/kg/injection, schedule: Q07DX002 (ip), vehicle: saline.
The mark [2] stands for this setting: dose: 6.25 mg/kg/injection, schedule: Q07DX002 (ip), vehicle: saline with Tween-80.
Where [3] appears, read: dose: 25.0 mg/kg/injection, schedule: Q07DX002 (ip), vehicle: saline with Tween-80.
Setting [4] is: dose: 200.0 mg/kg/injection, schedule: Q07DX002 (ip), vehicle: saline with Tween-80.
[5] abbreviates: dose: 50.0 mg/kg/injection, schedule: Q07DX002 (ip), vehicle: saline with Tween-80.
The mark [6] stands for this setting: dose: 100.0 mg/kg/injection, schedule: Q07DX002 (ip), vehicle: saline with Tween-80.
The mark [7] stands for this setting: dose: 12.5 mg/kg/injection, schedule: Q07DX002 (ip), vehicle: saline.
Where [8] appears, read: dose: 50.0 mg/kg/injection, schedule: Q07DX002 (ip), vehicle: saline.

For `Cc1c(N)nc(C(CC(N)=O)NCC(N)C(N)=O)nc1C(=O)NC(C(=O)NC(C)C(O)C(C)C(=O)NC(C(=O)NCCc1nc(-c2nc(C(=O)NCCCNC(C)c3ccccc3)cs2)cs1)C(C)O)C(OC1OC(CO)C(O)C(O)C1OC1OC(CO)C(O)C(OC(N)=O)C1O)c1cnc[nH]1` (stereo not given), the T/C (dose: 0.5 mg/kg/injection, schedule: Q07DX003 (ip), vehicle: saline) is 75 % of control; the T/C under setting [1] is 66 % of control; the T/C (dose: 1.0 mg/kg/injection, schedule: Q07DX003 (ip), vehicle: saline) was 90 % of control; the T/C (dose: 2.0 mg/kg/injection, schedule: Q07DX002 (ip), vehicle: saline) was 75 % of control; the T/C (dose: 2.0 mg/kg/injection, schedule: Q07DX003 (ip), vehicle: saline) was 102 % of control; the T/C (dose: 4.0 mg/kg/injection, schedule: Q07DX003 (ip), vehicle: saline) was 62 % of control. The T/C (dose: 8.0 mg/kg/injection, schedule: Q07DX003 (ip), vehicle: saline) is 83 % of control; the T/C (dose: 16.0 mg/kg/injection, schedule: Q07DX003 (ip), vehicle: saline) is 92 % of control; the T/C (dose: 32.0 mg/kg/injection, schedule: Q07DX002 (ip), vehicle: saline) is 29 % of control.
`CCCCCCCCCCCCCCCCS(=O)CC(O)COC(=O)c1ccc(C(=O)OCC(O)CS(=O)CCCCCCCCCCCCCCCC)cc1` (stereo not given): the T/C is, setting by setting: (dose: 12.5 mg/kg/injection, schedule: Q07DX002 (ip), vehicle: saline + alcohol) 111 % of control; (dose: 25.0 mg/kg/injection, schedule: Q07DX002 (ip), vehicle: saline + alcohol) 98 % of control; (dose: 50.0 mg/kg/injection, schedule: Q07DX002 (ip), vehicle: saline + alcohol) 98 % of control; (dose: 100.0 mg/kg/injection, schedule: Q07DX002 (ip), vehicle: saline + alcohol) 117 % of control; (dose: 200.0 mg/kg/injection, schedule: Q07DX002 (ip), vehicle: saline + alcohol) 76 % of control; (dose: 400.0 mg/kg/injection, schedule: Q07DX002 (ip), vehicle: saline + alcohol) 104 % of control.
Take `Nc1nnc[se]1`: the T/C was 79 % of control and 100 % of control under setting [2]; 66 % of control and 73 % of control (dose: 12.5 mg/kg/injection, schedule: Q07DX002 (ip), vehicle: saline with Tween-80); 86 % of control and 89 % of control under setting [3]; 50 % of control under setting [4].
On to `Cc1ccc(NC(=O)Oc2ccc(Br)cc2Br)c([N+](=O)[O-])c1`, for which the T/C by setting is: under setting [3], 111 % of control and 102 % of control; under setting [5], 51 % of control and 62 % of control; under setting [6], 86 % of control and 94 % of control; under setting [4], 65 % of control and 79 % of control.
Regarding `O=NN(CCF)C(=O)NC1CCCCC1`, the T/C was 77 % of control (dose: 12.5 mg/kg/injection, schedule: Q07DX002 (ip), vehicle: Klucel (hydroxypropylcellulose) (HPC)) and 15 % of control (dose: 50.0 mg/kg/injection, schedule: Q07DX002 (ip), vehicle: Klucel (hydroxypropylcellulose) (HPC)).
On to `Oc1ccc(O)cc1`, for which the T/C by setting is: (dose: 6.25 mg/kg/injection, schedule: Q07DX002 (ip), vehicle: suspension in saline) 80 % of control; (dose: 12.5 mg/kg/injection, schedule: Q07DX002 (ip), vehicle: suspension in saline) 95 % of control; (dose: 25.0 mg/kg/injection, schedule: Q07DX002 (ip), vehicle: suspension in saline) 108 % of control; (dose: 50.0 mg/kg/injection, schedule: Q07DX002 (ip), vehicle: suspension in saline) 94 % of control; (dose: 100.0 mg/kg/injection, schedule: Q07DX002 (ip), vehicle: suspension in saline) 97 % of control.
Take `OCCOCCN1CCN(CCCN2c3ccccc3Sc3ccc(C(F)(F)F)cc32)CC1`: the T/C was 94 % of control under setting [7] and 99 % of control under setting [8].
As for `COc1cc(C)c2c(c1C=O)Oc1c(c(C)c(O)c3c1C(O)OC3=O)OC2=O` (stereo not given), the T/C is 93 % of control (dose: 3.12 mg/kg/injection, schedule: Q07DX003 (ip), vehicle: suspension in saline); 60 % of control (dose: 6.25 mg/kg/injection, schedule: Q07DX003 (ip), vehicle: suspension in saline); 65 % of control (dose: 12.5 mg/kg/injection, schedule: Q07DX003 (ip), vehicle: suspension in saline); 93 % of control (dose: 25.0 mg/kg/injection, schedule: Q07DX003 (ip), vehicle: suspension in saline); 87 % of control (dose: 50.0 mg/kg/injection, schedule: Q07DX003 (ip), vehicle: suspension in saline).
In the case of `CCn1cnc2c(=S)nc[nH]c21`, the T/C was 87 % of control under setting [3], 64 % of control under setting [5], 57 % of control under setting [6] and 21 % of control under setting [4].
`ClC(Cl)(Cl)C1=NCc2nnn(Cc3ccccc3)c2N1`: the T/C (dose: 12.5 mg/kg/injection, schedule: Q07DX002 (ip), vehicle: distilled water + Tween-80) was 116 % of control; the T/C (dose: 25.0 mg/kg/injection, schedule: Q07DX002 (ip), vehicle: distilled water + Tween-80) was 80 % of control; the T/C under setting [3] was 97 % of control; the T/C under setting [6] was 102 % of control; the T/C (dose: 200.0 mg/kg/injection, schedule: Q07DX002 (ip), vehicle: distilled water + Tween-80) was 80 % of control; the T/C (dose: 400.0 mg/kg/injection, schedule: Q07DX002 (ip), vehicle: saline with Tween-80) was 155 % of control.
For `CC[C@]1(O)C[C@H]2CN(CCc3c([nH]c4ccccc34)[C@@](C(=O)OC)(c3cc4c(cc3OC)N(C=O)[C@H]3[C@@](O)(C(=O)OC)[C@H](OC(C)=O)[C@]5(CC)C=CCN6CC[C@]43[C@@H]65)C2)C1`, the T/C (dose: 0.01 mg/kg/injection, schedule: Q07DX002 (ip), vehicle: saline) was 123 % of control; the T/C (dose: 0.03 mg/kg/injection, schedule: Q07DX002 (ip), vehicle: saline) was 94 % of control; the T/C (dose: 0.06 mg/kg/injection, schedule: Q07DX002 (ip), vehicle: saline) is 95 % of control; the T/C (dose: 0.12 mg/kg/injection, schedule: Q07DX002 (ip), vehicle: saline) was 54 % of control; the T/C under setting [1] was 96 % of control and 106 % of control; the T/C (dose: 4.0 mg/kg/injection, schedule: Q07DX002 (ip), vehicle: saline) was 43 % of control and 63 % of control.
Take `Cc1ccc[c]([Hg][Cl])c1N=Nc1ccccc1`: under setting [2], the T/C is 69 % of control.
With `Nc1nncs1`, the T/C was 71 % of control under setting [7]; 114 % of control (dose: 25.0 mg/kg/injection, schedule: Q07DX002 (ip), vehicle: saline); 78 % of control under setting [8]; 74 % of control (dose: 50.0 mg/kg/injection, schedule: Q07DX003 (ip), vehicle: saline); 68 % of control (dose: 100.0 mg/kg/injection, schedule: Q07DX002 (ip), vehicle: saline); 78 % of control and 79 % of control (dose: 100.0 mg/kg/injection, schedule: Q07DX003 (ip), vehicle: saline). Besides, the T/C was 53 % of control (dose: 200.0 mg/kg/injection, schedule: Q07DX002 (ip), vehicle: saline); 58 % of control and 74 % of control (dose: 200.0 mg/kg/injection, schedule: Q07DX003 (ip), vehicle: saline); 65 % of control (dose: 400.0 mg/kg/injection, schedule: Q07DX002 (ip), vehicle: saline); 35 % of control and 38 % of control (dose: 400.0 mg/kg/injection, schedule: Q07DX003 (ip), vehicle: saline); 51 % of control and 53 % of control (dose: 800.0 mg/kg/injection, schedule: Q07DX003 (ip), vehicle: saline).
For the compound `C[C@]12C=CC(=O)C=C1CC[C@@H]1[C@@H]2[C@@H](O)C[C@@]2(C)[C@H]1CC[C@]2(O)C(=O)CO`, the T/C (dose: 40.0 mg/kg/injection, schedule: Q07DX003 (ip), vehicle: Klucel (hydroxypropylcellulose) (HPC)) is 100 % of control; the T/C (dose: 80.0 mg/kg/injection, schedule: Q07DX003 (ip), vehicle: Klucel (hydroxypropylcellulose) (HPC)) was 56 % of control; the T/C (dose: 160.0 mg/kg/injection, schedule: Q07DX003 (ip), vehicle: Klucel (hydroxypropylcellulose) (HPC)) was 58 % of control; the T/C (dose: 320.0 mg/kg/injection, schedule: Q07DX003 (ip), vehicle: Klucel (hydroxypropylcellulose) (HPC)) is 30 % of control; the T/C (dose: 640.0 mg/kg/injection, schedule: Q07DX003 (ip), vehicle: Klucel (hydroxypropylcellulose) (HPC)) is 24 % of control.
